Experimental data published in publication PMC6349357, “Computational and experimental analysis of bioactive peptide linear motifs in the integrin adhesome” (PLoS ONE, 2019).
No end group written: not given here. *: point of attachment. Palmitoyl = CCCCCCCCCCCCCCCC(=O)*

T1: vinculin (Homo sapiens, UniProt P18206)
T1 sequence (P18206 1-1066 isoform P18206-2): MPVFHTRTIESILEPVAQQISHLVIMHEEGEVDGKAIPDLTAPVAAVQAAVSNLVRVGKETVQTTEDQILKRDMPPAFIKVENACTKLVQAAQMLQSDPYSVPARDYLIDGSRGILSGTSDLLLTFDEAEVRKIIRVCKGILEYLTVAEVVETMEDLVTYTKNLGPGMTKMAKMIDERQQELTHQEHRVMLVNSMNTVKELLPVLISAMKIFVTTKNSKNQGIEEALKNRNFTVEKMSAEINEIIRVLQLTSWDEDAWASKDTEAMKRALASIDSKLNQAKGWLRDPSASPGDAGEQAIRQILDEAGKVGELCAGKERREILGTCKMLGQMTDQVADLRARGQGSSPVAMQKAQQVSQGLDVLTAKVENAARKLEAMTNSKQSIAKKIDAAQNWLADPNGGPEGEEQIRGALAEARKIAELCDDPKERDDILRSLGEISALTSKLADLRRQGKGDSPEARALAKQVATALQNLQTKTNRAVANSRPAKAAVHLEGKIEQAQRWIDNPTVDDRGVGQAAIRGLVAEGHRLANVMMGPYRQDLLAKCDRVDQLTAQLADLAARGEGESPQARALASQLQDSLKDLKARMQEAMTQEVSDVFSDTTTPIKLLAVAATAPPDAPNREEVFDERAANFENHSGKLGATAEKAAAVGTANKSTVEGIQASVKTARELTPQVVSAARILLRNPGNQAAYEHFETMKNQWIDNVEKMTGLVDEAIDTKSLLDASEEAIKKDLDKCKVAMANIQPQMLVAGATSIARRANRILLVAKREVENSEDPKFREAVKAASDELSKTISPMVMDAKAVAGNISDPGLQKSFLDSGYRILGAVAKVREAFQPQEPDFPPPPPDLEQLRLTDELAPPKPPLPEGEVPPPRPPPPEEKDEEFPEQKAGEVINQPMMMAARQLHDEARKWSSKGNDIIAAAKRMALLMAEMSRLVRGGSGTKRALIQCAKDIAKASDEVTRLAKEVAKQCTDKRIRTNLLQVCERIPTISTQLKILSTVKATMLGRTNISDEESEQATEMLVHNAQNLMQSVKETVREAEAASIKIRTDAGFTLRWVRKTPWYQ


Key:
[1] = molecular target: T1, vinculin; assay: Surface plasmon resonance, peptides injected over immobilised vinculin; assay type: binding; conditions: SPR, CM5 chip, serial peptide injections at 1 mM; rank order
Method: The SPR experiments were performed using a Biacore T200 system (GE Healthcare), and Series S CM5 or SA chips with 4 flow cells each.
Lyophilized vinculin was dissolved in flow buffer to a concentration of 1 mg/ml and covalently coupled onto the carboxymethylated dextran matrix of CM5 sensor chips using standard amine coupling. The flow buffer contained 10 mM HEPES, 150 mM NaCl, 3 mM EDTA, 0.05% surfactant P20. The chip was activated with an injection of 70 μl of a mixture of 0.05 M EDC and 0.2 M NHS, followed by the injection of approximately 70 μl of 10 μg/ml vinculin in 10 mM sodium acetate, pH 5.0 in one flow cell to yield a response of 7200 RU. Remaining reactive groups in the channel were blocked with an injection of 100 μl ethanolamine. Binding experiments were performed by injecting peptides for 120 s at a flow rate of 20 μl/min, at a concentration of 1 mM in the flow buffer over the chip surface to monitor association kinetics, followed by buffer flow for 120 s to measure dissociation kinetics. Between experiments, the surface was regenerated by injecting a 60 second pulse of 10 mM glycine pH 2.

[2] = tested on: resting platelets; assay: Platelet aggregation induced by peptide in resting washed platelets (activation); assay type: cell-based, human (healthy volunteers); conditions: peptide 50 µM; for Platelet activation, donor 14 06 13 / Platelet activation, donor 18 06 13 / Platelet activation, donor 22 08 13 DONOR1 / Platelet activation, donor 22 08 13 DONOR2: Fig S10 sheet, unit assumed; for Platelet activation, donor 14 06 13: replicate 14_06_13; for Platelet activation, donor 18 06 13: replicate 18_06_13; for Platelet activation, donor 22 08 13 DONOR1: replicate 22_08_13_DONOR1; for Platelet activation, donor 22 08 13 DONOR2: replicate 22_08_13_DONOR2
How it was run: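 Aggregation was read by optical density at 37°C under 1100 rpm stirring. Samples were 3x10^5/μl washed human platelets, rested 45 min and supplemented with 1.8 mM calcium chloride. Peptide went in at 2 min, followed 6 min later by TRAP at an experiment-dependent concentration, with 7 min further recording.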

[3] = molecular target: vinculin (UniProt P18206)
[4] = molecular target: Syntenin-1 (UniProt O00560)
Sequence of Syntenin-1 (O00560 whole entry): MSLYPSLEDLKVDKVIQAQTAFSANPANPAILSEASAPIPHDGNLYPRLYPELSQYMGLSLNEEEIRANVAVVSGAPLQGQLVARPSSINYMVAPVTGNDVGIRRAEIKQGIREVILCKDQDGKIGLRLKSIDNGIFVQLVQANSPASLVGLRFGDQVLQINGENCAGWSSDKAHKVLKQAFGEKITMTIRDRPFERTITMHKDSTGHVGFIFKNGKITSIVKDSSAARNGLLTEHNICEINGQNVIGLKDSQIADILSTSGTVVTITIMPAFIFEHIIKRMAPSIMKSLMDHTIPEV

Molecule	Relative binding affinity to immobilised vinculin [1]	Platelet activation, donor 14 06 13 [2] [%]	Platelet activation, donor 18 06 13 [2] [%]	Platelet activation, donor 22 08 13 DONOR1 [2] [%]	Platelet activation, donor 22 08 13 DONOR2 [2] [%]	Platelet activating effect compared with N-terminal tat attachment ([2]; S10 Fig, in words)	Activation: platelet aggregation induced in resting platelets after 6 minutes incubation with peptides (50μM) [3]	Inhibition: platelet aggregation induced by 4μM TRAP in platelets pre-incubated with peptide (20μM) [4]
ACTN1_VBS-tat: ACTN1 vinculin-binding peptide with the tat peptide at the C-terminus (WEQLLTTIARTINEVENQIGRKKRRQRRRPPQ)	tat-ACTN1_VBS > TLN1_VBS-tat > ACTN1_VBS-tat > ACTN1_VBS	45	11	32	4	weaker platelet activating effect	–	–
ACTN1_VBS: ACTN1_VBS peptide lacking the tat (WEQLLTTIARTINEVENQI)	tat-ACTN1_VBS > TLN1_VBS-tat > ACTN1_VBS-tat > ACTN1_VBS	35	11	7	11	–	–	–
tat-ACTN1_VBS (peptide)	–	–	–	–	–	–	66	–
Palmitoyl-APTNEFYA [pal-SDC4_tail]	–	–	–	–	–	–	–	34
